Reference: US5447720A, “Composition and method for treatment of hemoglobinopathies” (Fadulu; Sunday O., priority 1993, dated 1995)

Legend:
sickling [1] = settings: words; cited from earlier work
HbF = settings: sickle cell patients; words; cited from earlier work
sickling [2] = test: Anti-sickling activity of acid components (test not specified); settings: words

Compound	anti-sickling activity of less polar acids (sickling [2])	further results
O=C(O)c1ccccc1CO [2-hydroxymethylbenzoic acid]		in vitro anti-sickling effect (literature) (sickling [1]): in vitro nonsickling characteristics
Nc1ncn([C@@H]2O[C@H](CO)[C@@H](O)[C@H]2O)c(=O)n1 [5-azacytidine]		effect on HbF levels (literature) (HbF): increased HbF levels
CCCCC/C=C\C/C=C\CCCCCCCC(=O)O [linoleic]	little if any anti-sickling activity	
CC/C=C\C/C=C\C/C=C\CCCCCCCC(=O)O [linolenic]	little if any anti-sickling activity	
CCCCCCCC/C=C\CCCCCCCC(=O)O [oleic acids]	little if any anti-sickling activity	
CCCCCCCCCCCCCCCCCC(=O)O [stearic]	little if any anti-sickling activity	
arginine butyrate		effect on HbF levels (literature) (HbF): rapid stimulation of the HbF
